The source of these data is ChEMBL document CHEMBL3393055, “6,6-Fused heterocyclic ureas as highly potent TRPV1 antagonists” (Bioorg Med Chem Lett, 2015).

For one assay, the target named is T1, Transient receptor potential cation channel subfamily V member 1 (Homo sapiens, UniProt Q8NER1). Nature of the assay: Antagonist activity at human TRPV1 assessed as inhibition of capsaicin-induced effect by FLIPR assay.
T1 sequence (Q8NER1 whole entry): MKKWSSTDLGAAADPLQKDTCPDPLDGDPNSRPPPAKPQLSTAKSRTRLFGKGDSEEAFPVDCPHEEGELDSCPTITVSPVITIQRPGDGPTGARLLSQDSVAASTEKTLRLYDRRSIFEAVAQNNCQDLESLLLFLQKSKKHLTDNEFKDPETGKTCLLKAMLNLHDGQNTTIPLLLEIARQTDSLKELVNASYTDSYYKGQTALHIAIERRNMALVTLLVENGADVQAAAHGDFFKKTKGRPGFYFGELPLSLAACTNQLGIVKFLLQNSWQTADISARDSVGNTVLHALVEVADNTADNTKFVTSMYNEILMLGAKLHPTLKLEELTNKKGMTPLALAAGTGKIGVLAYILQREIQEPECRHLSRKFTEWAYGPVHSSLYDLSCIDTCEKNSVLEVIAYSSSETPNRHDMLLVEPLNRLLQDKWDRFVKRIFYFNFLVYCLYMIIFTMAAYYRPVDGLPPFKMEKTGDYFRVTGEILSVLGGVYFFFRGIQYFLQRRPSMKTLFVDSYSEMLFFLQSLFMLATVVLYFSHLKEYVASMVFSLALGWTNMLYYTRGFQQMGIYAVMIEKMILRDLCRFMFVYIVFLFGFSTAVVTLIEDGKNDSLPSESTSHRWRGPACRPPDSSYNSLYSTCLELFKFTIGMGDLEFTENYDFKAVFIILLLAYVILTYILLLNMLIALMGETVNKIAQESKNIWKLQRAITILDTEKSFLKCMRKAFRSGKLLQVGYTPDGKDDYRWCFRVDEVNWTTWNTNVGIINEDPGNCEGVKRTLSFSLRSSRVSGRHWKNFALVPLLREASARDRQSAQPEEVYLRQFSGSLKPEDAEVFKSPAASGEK
Conditions: not given; call rule not given here
In general, Ki refers to a dissociation constant, usually derived from enzyme kinetics or from competition with a known ligand. For the molecule `CC1CCN(c2nc(C(F)(F)F)ccc2CNC(=O)Nc2ccc3ncncc3c2)CC1`, the Ki entry is on record as “Agonist”.

`CC1CCN(c2nc(C(F)(F)F)ccc2CNC(=O)Nc2nccc3ccccc23)CC1`: the Ki result is recorded as “Not Active”.

Take `CC1CCN(c2nc(C(F)(F)F)ccc2CNC(=O)Nc2nccc3cccnc23)CC1`: the Ki result was “Not Active”.

On to `CC1CCN(c2nc(C(F)(F)F)ccc2CNC(=O)Nc2ccnc3ccccc23)CC1`, for which the Ki entry is listed as “Agonist”.

On to `CC1CCN(c2nc(C(F)(F)F)ccc2CNC(=O)Nc2ccc3ccccc3n2)CC1`, for which the Ki result is recorded as “Not Active”.

The assay is the same for the next values; noted with them: read-out: Ki.
Regarding `CC1CCN(c2nc(C(F)(F)F)ccc2CNC(=O)Nc2cccc3cnccc23)CC1`, the Ki was determined as 0.2 nM.

Regarding `CC1CCN(c2nc(C(F)(F)F)ccc2CNC(=O)Nc2cccc3ncccc23)CC1`, the Ki was 0.7 nM.

For `CC1CCN(c2nc(C(F)(F)F)ccc2CNC(=O)Nc2cnc3ccccc3c2)CC1`, the Ki was 9.5 nM.

Turning to `CC1CCN(c2nc(C(F)(F)F)ccc2CNC(=O)Nc2cccc3cccnc23)CC1`, the inhibition constant (Ki) is 91.6 nM.

Take `CC1CCN(c2nc(C(F)(F)F)ccc2CNC(=O)Nc2cccc3nccnc23)CC1`: the Ki was 48.1 nM.

For `CC1CCN(c2nc(C(F)(F)F)ccc2CNC(=O)Nc2ccc3cnncc3c2)CC1`, the Ki amounted to 8.9 nM.

In the case of `CC1CCN(c2nc(C(F)(F)F)ccc2CNC(=O)Nc2ccc3ccncc3c2)CC1`, the inhibition constant Ki turned out to be 8.4 nM.

As to `CC1CCN(c2nc(C(F)(F)F)ccc2CNC(=O)Nc2ccc3cnccc3c2)CC1`, the inhibition constant Ki was determined as 7.2 nM.

`CC1CCN(c2nc(C(F)(F)F)ccc2CNC(=O)Nc2cncc3ccccc23)CC1`: the Ki turned out to be 1.8 nM.

For `CC1CCN(c2nc(C(F)(F)F)ccc2CNC(=O)Nc2cccc3ccncc23)CC1`, the Ki was 0.4 nM.

In the case of `CC(C)(C)c1ccc(CNC(=O)Nc2cccc3cnccc23)cc1`, the Ki is 13.8 nM.

Take `CC1CCN(c2nc(C(F)(F)F)ccc2CNC(=O)Nc2ccc3cncnc3c2)CC1`: the inhibition constant Ki amounted to 7.8 nM.

Consider `O=C(NCc1ccc(C(F)(F)F)cc1)Nc1cccc2cnccc12`, for which the Ki was 18.3 nM.

For `CC1CCN(c2nc(C(F)(F)F)ccc2CNC(=O)Nc2ccc3cccnc3c2)CC1`, the Ki turned out to be 7.1 nM.

The target in the next assay is T1, Transient receptor potential cation channel subfamily V member 1. Nature of the assay: Antagonist activity at human TRPV1 assessed as inhibition of pH-induced effect at 1 uM by FLIPR assay.
Conditions: not given
Broadly, the IC50 is the concentration needed to halve the response being measured. As for `CC1CCN(c2nc(C(F)(F)F)ccc2CNC(=O)Nc2cccc3cnccc23)CC1`, the IC50 result is given as “Not Active”.

Another assay shares this target. Nature of the assay: Antagonist activity at human TRPV1 assessed as inhibition of 45 degC heat-induced effect at 1 uM by FLIPR assay.
Conditions: not given
As for `CC1CCN(c2nc(C(F)(F)F)ccc2CNC(=O)Nc2cccc3cnccc23)CC1`, the IC50 is 0.55 nM.

For a further assay, the system named is Mus musculus. Nature of the assay: Analgesic activity in formalin-induced mouse pain model at 10 mg/kg, po. Type of assay: functional.
Conditions: not given
In turn, `CC1CCN(c2nc(C(F)(F)F)ccc2CNC(=O)Nc2cccc3cnccc23)CC1` gave an MPE of 73%.

Another assay addresses T1, Transient receptor potential cation channel subfamily V member 1. In words: Antagonist activity at human TRPV1 assessed as inhibition of NADA-induced effect at 1 uM by FLIPR assay.
Conditions: not given
With `CC1CCN(c2nc(C(F)(F)F)ccc2CNC(=O)Nc2cccc3cnccc23)CC1`, the Ki was 0.02 nM.

A further assay shares this target. In words: Antagonist activity at human TRPV1 assessed as inhibition of capsaicin-induced effect at 1 uM by FLIPR assay.
Conditions: not given
Usually inhibition stands for the relative decrease from the control value, in per cent. On to `CC1CCN(c2nc(C(F)(F)F)ccc2CNC(=O)Nc2ccc3ncccc3c2)CC1`, for which the inhibition is 40%.

In the case of `CC1CCN(c2nc(C(F)(F)F)ccc2CNC(=O)Nc2cc3ccccc3cn2)CC1`, the inhibition amounted to 10%.

A further assay has as its system Mus musculus. Nature of the assay: Analgesic activity in formalin-induced mouse pain model at 0.3 mg/kg, po. The class given is functional.
Conditions: not given
Regarding `CC1CCN(c2nc(C(F)(F)F)ccc2CNC(=O)Nc2cccc3cnccc23)CC1`, the MPE is on record as 18%.
